Measured values taken from patent US20250320458A1, “CARDIOMYOCYTE SUBTYPES AND METHODS OF MAKING AND USING” (University Health Network, priority 2021, published 2025).

B1: BMP4: Recombinant human BMP4 (R&D), BMP pathway agonist (protein, UniProt P12644 293-408, looked up)
Bone morphogenetic protein 4: SPKHHSQRARKKNKNCRRHSLYVDFSDVGWNDWIVAPPGYQAFYCHGDCPFPLADHLNSTNHAIVQTLVNSVNSSIPKACCVPTELSAISMLYLDEYDKVVLKNYQEMVVEGCGCR

Legend:
Format in all cases: cell-based, human
[1] = test system: aSHF progenitors; assay: BMP pathway agonist/antagonist treatment of day 5 aSHF progenitors, RT-qPCR 24 hours after treatment; conditions: for expression of genes indicative of aSHF (FGF8 and ISL1), pSHF (HOXB1) and FHF (HAND1) fates in the aSHF population: 10 ng/mL BMP4 or 0.1 μM LDN, ROH added, 24 hours after treatment (FIG. 5C)
Description: (§1) RNA extraction was performed using the RNAqueous-micro Kit (Invitrogen). Purified RNA was treated with RNase-free DNase (Invitrogen), and then reverse transcribed into cDNA using oligo (dT) primers and random hexamers and iscript Reverse Transcriptase (ThermoFisher). QRT-PCR was performed on an EP Real-Plex MasterCycler (Eppendorf) using QuantiFast SYBR Green PCR kit (QIAGEN). The copy number of each gene was determined based on a standard curve plotted with human genome DNA with known copy number. The relative expression levels of genes were obtained by normalizing their copy number to that of TBP.
(§2) The above observation that the aSHF progenitors express genes involved in Bmp signaling is consistent with the known role of this pathway in the development of right ventricular cardiomyocytes from aSHF progenitors in the mouse. […] The notable exception is the genes for the ligands BMP2 and BMP4, which are also highly expressed in the FHF lineage (FIG. 5B). To determine if BMP plays a role in the differentiation of the aSHF progenitors to derivative lineages, the day 5 cells were treated with either a pathway agonist (10 ng/mL BMP4) or antagonist (0.1 μM LDN) and then the population was analyzed 24 hours after the treatments. FHF and pSHF progenitors were included in the analyses, and ROH was added to the cultures of pSHF and aSHF progenitor, given that both populations display ALDH activity. […] Inhibition of the pathway did, however, lead to upregulation of genes associated with pharyngeal progenitors (FOXC2 and SIX1) (FIG. 5D) and downregulation of those indicative of cardiomyocyte development (UNC45B and GATA4) (FIG. 5E). To further investigate the consequences of BMP manipulation, the agonist/antagonist treatment was extended for an additional 48 hours and then the treated cells were cultured for 12 days to promote cardiomyocyte development. FHF and pSHF progenitors also were cultured for 20 days without manipulation of BMP signaling. All 3 progenitor populations generated TNNT2^+/SIRPa^+ cardiomyocytes by day 20 of differentiation (FIGS. 5F and 5G). In addition to the cardiomyocytes, the aSHF-derived population also contained PDGFR-beta^+ mesenchymal cells (FIG. 5F).

[2] = test system: aSHF progenitors; assay: Extended BMP agonist/antagonist treatment of aSHF progenitors, day 20 flow cytometry and cell numbers; conditions: treatment extended additional 48 hours, then cultured 12 days; day 20 (FIGS. 5F and 5H)
Description: Cells of early stages (day 3 to day 6) were dissociated with TrypLE for 3-5 minutes at room temperature to single cells, which were then filtered and transferred to IMDM media. Day 20 EBs were dissociated with 0.5 mg/ml collagenase type 2 (Worthington) in HANKs buffer for 1.5 hours at 37° C. The filtered day 20 cells were then transferred to FACS buffer consisting of PBS with 5% fetal calf serum (Wisent) and 0.02% sodium azide. The following antibodies were used for staining samples obtained from various stages of differentiation: anti-PDGFRa-PE (R&D Systems, 1:20), anti-CD235a/b-APC (BD PharMingen, 1:200), anti-SIRPa-PeCy7 (Biolegend, 1:2000), anti-CXCR4 (Biolegend, 1:100), anti-CDId-PE (Biolegend, 1:100), anti-CD49c-PE (ThermoFisher, 1:100), anti-cardiac isoform of CTNT (ThermoFisher Scientific, 1:2000), or anti-myosin light chain 2 (Abcam, 1:1000). For unconjugated primary antibodies, the following secondary antibodies were used for detection: goat anti-mouse IgG-APC (BD Pharmigen, 1:250), or donkey anti-rabbit IgG-PE (Jackson ImmunoResearch, 1:250). Detailed antibody information is described in Table 2.
To stain live cells with cell-surface protein, dissociated single cells were stained for 15 minutes at room temperature in FACS buffer and washed twice before they were subject to further analyses. For intracellular staining, cells were fixed for 15 min at 4° C. in PBS containing 4% PFA followed by permeabilization using 90% methanol for 15 min at 4° C. The permeabilized cells were washed with PBS containing 0.5% BSA (Sigma) twice and stained with unconjugated primary antibodies in FACS buffer for 18 hours at 4° C. Stained cells were washed with PBS with 0.5% BSA and stained with proper secondary antibodies in FACS buffer for 30 mins at 4° C. Following washing steps, stained cells were processed with the Fortessa (BD) and analyzed using FlowJo software (Tree Star). For cell sorting, stained cells were kept in StemPro-34 media and sorted using Influx (BD), FACSAriall (BD), MoFlo-XDP (BD) and FACSAria Fusion (BD). Data were analyzed using FlowJo software (Tree Star).
as §2, with “All 3 progenitor populations generated TNNT2^+/SIRPa^+ cardiomyocytes by day 20 of differentiation (FIGS. 5F and 5G). In addition to the cardiomyocytes, the aSHF-derived population also contained PDGFR-beta^+ mesenchymal cells (FIG. 5F).” left out

[3] = test system: aSHF cells; assay: Extended BMP agonist/antagonist treatment of aSHF cells, day 20 RT-qPCR; conditions: aSHF cells treated with LDN
Description: as §1
The above observation that the aSHF progenitors express genes involved in Bmp signaling is consistent with the known role of this pathway in the development of right ventricular cardiomyocytes from aSHF progenitors in the mouse. […] The notable exception is the genes for the ligands BMP2 and BMP4, which are also highly expressed in the FHF lineage (FIG. 5B). To determine if BMP plays a role in the differentiation of the aSHF progenitors to derivative lineages, the day 5 cells were treated with either a pathway agonist (10 ng/mL BMP4) or antagonist (0.1 μM LDN) and then the population was analyzed 24 hours after the treatments. […]

[4] = test system: day 4 pSHF cells (ALDH CXCR4−); assay: Retinol treatment of isolated day 4 pSHF cells, RT-qPCR of progenitor markers; conditions: retinol 2 μM vs DMSO, 24 hours
Description: (§3) At day 1, the EBs were transferred to mesoderm induction media consisting of base media, 5 ng/mL rhbFGF (R&D), and various concentration of rhBMP4 (R&D) and rhActivinA (R&D) as described in the results section. At day 3, the EBs were transferred to the media consisting of base media, 2 μM Wnt inhibitor IWP2 (TOCRIS) and 10 ng/ml rhVEGF (R&D). From day 5 to day 12, the EBs were transferred to base media with 5 ng/mL rhVEGF. From day 12 to day 20, the EBs were transferred to base media and cultured in a normoxic environment (5% CO2, 20% O2). For pSHF lineage differentiation, the day 4 sorted pSHF cells were treated with 2 μM Retinol (Sigma) from day 4 to day 8. Similarly, the sorted aSHF cells were treated with 2 μM Retinol and 10 ng/mL rhBMP4 from day 5 to day 8 of differentiation.
as §1, with “TBP. […]” for “TBP.”

[5] = test system: day 5 aSHF cells; assay: Retinol treatment of day 5 aSHF cells, RT-qPCR of RA-responsive genes; conditions: ROH for 24 hours vs DMSO, RT-qPCR day 6 (FIG. 4J)
Description: as §3, with “Similarly, the sorted aSHF cells were treated with 2 μM Retinol and 10 ng/mL rhBMP4 from day 5 to day 8 of differentiation.” left out
RNA extraction was performed using the RNAqueous-micro Kit (Invitrogen). […] QRT-PCR was performed on an EP Real-Plex MasterCycler (Eppendorf) using QuantiFast SYBR Green PCR kit (QIAGEN). The copy number of each gene was determined based on a standard curve plotted with human genome DNA with known copy number. […]
The pSHF lineage expressed ALDH1A2 and RDH10, from the day 3 mesoderm stage onward, whereas expression of these genes was not detected until day 4 of differentiation in the aSHF lineage (FIG. 4G). These patterns correlate well with ALDH activity, which was detected in more than 90% of the days 4 and 5 pSHF cells. […] ALDH was not detected in the day 5 FHF population. […]

Molecule | expression of genes indicative of aSHF (FGF8 and ISL1), pSHF (HOXB1) and FHF (HAND1) fates in the aSHF population [1] | expression of genes associated with pharyngeal progenitors (FOXC2 and SIX1) ([1]; 0.1 μM LDN, 24 hours after treatment (FIG. 5D)) | expression of genes indicative of cardiomyocyte development (UNC45B and GATA4) ([1]; 0.1 μM LDN, 24 hours after treatment (FIG. 5E)) | PDGFR-beta+ cells in the aSHF-derived population (number / size of fraction) [2] | proportion of cardiomyocytes in the aSHF-derived population [2] | expression of the ventricular cardiomyocyte markers IRX4 and MY1.2 [3] | levels of PDGFRB [3] | expression of the RA responsive gene CYP26A1 and the pSHF progenitor markers HOXA1 and HOXB1 ([4]; RT-qPCR (FIG. 3H)) | expression of aSHF progenitor markers FGF10, FOXC1 and FOXC2 ([4]; RT-qPCR (FIG. 3I)) | expression of the RA-responsive gene CYP26A1 and HOXB1 [5] | number of cardiomyocytes in the aSHF-derived population [2]
c1ccc2c(-c3cnn4cc(-c5ccc(N6CCNCC6)cc5)cnc34)ccnc2c1 [LDN, LDN 193189] | did not alter | upregulation | downregulation | increased | reduced | decrease | elevated | – | – | – | –
CC1=C(/C=C/C(C)=C/C=C/C(C)=C/CO)C(C)(C)CCC1 [ROH, Retinol] | – | – | – | – | – | – | – | upregulation | downregulated | upregulation | –
B1 | did not alter | – | – | reducing | increased | – | – | – | – | – | increased
